# From ChEMBL document CHEMBL1151855, “Synthesis of novel 1-alkyl-8-substituted-3-(3-methoxypropyl) xanthines as putative A(2B) receptor antagonists” (Bioorg Med Chem, 2009)
# Columns and labels:
# Adenosine receptor A2a [1] = molecular target: T1, Adenosine receptor A2a (Homo sapiens, UniProt P29274); assay: Displacement of [3H]ZM241385 from human adenosine A2a receptor expressed in human HeLa cells at 1 uM; type: cell-based
# [2] = molecular target: T2, Adenosine receptor A2b (Homo sapiens) (UniProt P29275); assay: Displacement of [3H]DPCPX from human adenosine A2b receptor expressed in HEK293 cells at 1 uM; type: cell-based
# T2 sequence (whole entry): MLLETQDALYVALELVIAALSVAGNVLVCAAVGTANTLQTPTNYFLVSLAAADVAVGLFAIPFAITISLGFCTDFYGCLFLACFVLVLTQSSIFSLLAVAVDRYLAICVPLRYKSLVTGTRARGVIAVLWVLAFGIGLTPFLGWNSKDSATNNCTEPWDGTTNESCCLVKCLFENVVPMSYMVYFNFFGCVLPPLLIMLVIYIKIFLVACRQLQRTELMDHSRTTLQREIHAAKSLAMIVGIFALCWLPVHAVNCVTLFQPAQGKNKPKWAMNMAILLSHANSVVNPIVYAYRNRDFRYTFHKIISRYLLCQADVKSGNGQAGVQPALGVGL
# Adenosine receptor A2a [3] = molecular target: T1, Adenosine receptor A2a; assay: Binding affinity to human adenosine A2a receptor expressed in human HeLa cells; type: cell-based
# Adenosine receptor A2b = molecular target: T3, Adenosine receptor A2b (Homo sapiens, UniProt P29275); assay: Binding affinity to human adenosine A2b receptor expressed in HEK293 cells; type: cell-based
# T3 sequence (P29275 whole entry): T2 sequence (whole entry)
# [4] = molecular target: T4, Adenosine receptor A3 (Homo sapiens) (UniProt P0DMS8); assay: Displacement of [3H]NECA from human adenosine A3 receptor expressed in human HeLa cells at 1 uM; type: cell-based
# T4 sequence (whole entry): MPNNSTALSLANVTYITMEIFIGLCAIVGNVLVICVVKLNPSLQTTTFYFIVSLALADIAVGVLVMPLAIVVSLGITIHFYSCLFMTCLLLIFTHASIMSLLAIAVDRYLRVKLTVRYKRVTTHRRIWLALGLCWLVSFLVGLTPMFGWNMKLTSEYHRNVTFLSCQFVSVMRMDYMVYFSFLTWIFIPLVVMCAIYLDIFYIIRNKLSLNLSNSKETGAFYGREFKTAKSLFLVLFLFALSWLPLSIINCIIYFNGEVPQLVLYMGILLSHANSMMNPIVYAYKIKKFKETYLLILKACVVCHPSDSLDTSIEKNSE
# Adenosine receptor A1 = molecular target: T5, Adenosine receptor A1 (Rattus norvegicus, UniProt P25099); assay: Binding affinity to rat cortex adenosine A1 receptor
# T5 sequence (P25099 whole entry): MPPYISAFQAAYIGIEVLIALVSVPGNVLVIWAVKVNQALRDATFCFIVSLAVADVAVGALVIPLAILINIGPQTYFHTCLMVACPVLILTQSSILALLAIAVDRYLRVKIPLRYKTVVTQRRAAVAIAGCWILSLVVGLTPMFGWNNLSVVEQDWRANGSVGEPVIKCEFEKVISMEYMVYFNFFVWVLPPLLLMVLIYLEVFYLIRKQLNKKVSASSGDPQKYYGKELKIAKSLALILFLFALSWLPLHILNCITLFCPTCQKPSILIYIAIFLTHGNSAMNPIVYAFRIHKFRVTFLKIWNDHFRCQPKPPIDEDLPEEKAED
# [5] = molecular target: T6, Adenosine receptor A1 (Rattus norvegicus) (UniProt P25099); assay: Displacement of [3H]DPCPX from rat cortex adenosine A1 receptor at 1 uM
# T6 sequence (whole entry): T5 sequence (P25099 whole entry)
# Adenosine receptor A3 = molecular target: T7, Adenosine receptor A3 (Homo sapiens, UniProt P0DMS8); assay: Binding affinity to human adenosine A3 receptor expressed in human HeLa cells; type: cell-based
# T7 sequence (P0DMS8 whole entry): T4 sequence (whole entry)
# T1 sequence (P29274 whole entry): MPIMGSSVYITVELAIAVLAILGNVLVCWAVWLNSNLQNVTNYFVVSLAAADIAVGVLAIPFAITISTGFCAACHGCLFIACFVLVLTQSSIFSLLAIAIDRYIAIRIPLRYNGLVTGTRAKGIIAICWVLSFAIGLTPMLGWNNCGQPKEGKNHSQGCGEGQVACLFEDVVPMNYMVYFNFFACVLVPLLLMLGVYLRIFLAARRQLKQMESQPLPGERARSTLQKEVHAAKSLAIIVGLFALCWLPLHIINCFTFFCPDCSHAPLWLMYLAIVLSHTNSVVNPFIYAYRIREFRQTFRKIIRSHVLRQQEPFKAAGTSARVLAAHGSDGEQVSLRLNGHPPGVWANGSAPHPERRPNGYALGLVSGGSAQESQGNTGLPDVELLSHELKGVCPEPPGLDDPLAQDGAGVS
SMILES,Activity (Adenosine receptor A2a [1]) [%],Activity [2] [%],Ki (Adenosine receptor A2a [3]) [nM],Ki (Adenosine receptor A2b) [nM],other results
CCCn1c(=O)c2[nH]c(C3CCCC3)nc2n(CCCOC)c1=O,84,62,–,–,–
CCS(=O)(=O)CCn1c(=O)c2[nH]c(Cc3ccco3)nc2n(CCCOC)c1=O,6,15,–,–,–
CCn1c(=O)c2[nH]c(-c3ccc(OCC(=O)Nc4ccc(O)cc4)cc3)nc2n(CCCOC)c1=O,–,–,417,15.5,Activity [4]: 65%; Ki (Adenosine receptor A1): 174 nM
CC[S+]([O-])CCn1c(=O)c2[nH]c(Cc3ccco3)nc2n(CCCOC)c1=O (configuration not stated),12,0,–,–,–
CCn1c(=O)c2[nH]c(-c3ccc(OCC(=O)NC4CCCC4)cc3)nc2n(CCCOC)c1=O,–,–,95.5,77.6,–
CCn1c(=O)c2[nH]c(Cc3ccco3)nc2n(CCCOC)c1=O,11,17,–,–,–
CCn1c(=O)c2[nH]c(-c3ccc(OCC(=O)Nc4ccc(C(C)=O)cc4)cc3)nc2n(CCCOC)c1=O,–,–,148,11.7,Activity [5]: 68%; Ki (Adenosine receptor A3): 708 nM
CCn1c(=O)c2[nH]c(-c3cccs3)nc2n(CCCOC)c1=O,–,–,219,126,–
CCSCCn1c(=O)c2[nH]c(Cc3ccco3)nc2n(CCCOC)c1=O,1,–,–,2000,–
CCn1c(=O)c2[nH]c(-c3ccco3)nc2n(CCCOC)c1=O,–,–,490,138,–
CCn1c(=O)c2[nH]c(-c3ccc[nH]3)nc2n(CCCOC)c1=O,–,–,209,85.1,–
CCn1c(=O)c2[nH]c(-c3ccc(OCC(=O)Nc4ccc(F)cc4)cc3)nc2n(CCCOC)c1=O,–,–,56.2,3.02,Ki (Adenosine receptor A3): 955 nM; Ki (Adenosine receptor A1): 20.9 nM
CCSCCn1c(=O)c2[nH]c(-c3ccco3)nc2n(CCCOC)c1=O,–,–,5010,490,–
CCCn1c(=O)c2[nH]c(CCCc3ccccc3)nc2n(CCCOC)c1=O,26,70,–,–,–
CCn1c(=O)c2[nH]c(-c3ccc(OCC(=O)Nc4ccon4)cc3)nc2n(CCCOC)c1=O,–,–,214,20.9,Ki (Adenosine receptor A3): 933 nM; Ki (Adenosine receptor A1): 95.5 nM
CCn1c(=O)c2[nH]c(-c3ccc(OCC(=O)Nc4ccc(N(C)C)cc4)cc3)nc2n(CCCOC)c1=O,–,–,1780,174,Ki (Adenosine receptor A3): 209 nM; Ki (Adenosine receptor A1): 871 nM
CCCn1c(=O)c2[nH]c(-c3cccs3)nc2n(CCCOC)c1=O,25,77,–,–,–
CCn1c(=O)c2[nH]c(-c3ccc(OCC(=O)Nc4ccc(C#N)cc4)cc3)nc2n(CCCOC)c1=O,–,–,112,9.12,Ki (Adenosine receptor A3): 398 nM; Ki (Adenosine receptor A1): 676 nM
CCCn1c(=O)c2[nH]c(-c3ccc[nH]3)nc2n(CCCOC)c1=O,–,–,398,148,–

# Further lines, with some results ahead:
Activity (Adenosine receptor A2a [1]) [%],Activity [2] [%],Ki (Adenosine receptor A2a [3]) [nM],Ki (Adenosine receptor A2b) [nM],SMILES,other results
25,30,–,–,COCCCn1c(=O)n(CC(C)C)c(=O)c2[nH]c(-c3ccccc3)nc21,–
–,–,204,93.3,CCn1c(=O)c2[nH]c(-c3ccc(OCC(=O)Nc4nc5ccccc5[nH]4)cc3)nc2n(CCCOC)c1=O,–
–,–,170,15.5,CCn1c(=O)c2[nH]c(-c3ccc(OCC(=O)Nc4ccccn4)cc3)nc2n(CCCOC)c1=O,Activity [5]: 2%; Activity [4]: 69%
–,–,759,33.9,CCn1c(=O)c2[nH]c(-c3ccc(OCC(=O)Nc4cccnc4)cc3)nc2n(CCCOC)c1=O,Ki (Adenosine receptor A3): 95.5 nM; Ki (Adenosine receptor A1): 162 nM
49,67,–,–,CCn1c(=O)c2[nH]c(-c3ccccc3)nc2n(CCCOC)c1=O,–
54,70,–,–,COCCCn1c(=O)n(CCOC)c(=O)c2[nH]c(-c3ccccc3)nc21,–
14,66,–,–,CCCn1c(=O)c2[nH]c(-c3ccc(-c4ccccc4)cc3)nc2n(CCCOC)c1=O,–
0,49,–,–,CCCCCn1c(=O)c2[nH]c(-c3ccccc3)nc2n(CCCOC)c1=O,–
18,11,–,–,CC[S+]([O-])CCn1c(=O)c2[nH]c(-c3ccccc3)nc2n(CCCOC)c1=O (configuration not stated),–
20,0,–,–,CCS(=O)(=O)CCn1c(=O)c2[nH]c(-c3ccccc3)nc2n(CCCOC)c1=O,–
8,41,–,–,CCSCCn1c(=O)c2[nH]c(-c3ccccc3)nc2n(CCCOC)c1=O,–
–,–,97.7,2.88,CCn1c(=O)c2[nH]c(-c3ccc(OCC(=O)Nc4ccc(Br)cc4)cc3)nc2n(CCCOC)c1=O,Ki (Adenosine receptor A3): 1290 nM; Ki (Adenosine receptor A1): 100 nM
5,6,–,–,CCn1c(=O)c2c(nc(-c3ccc(-c4ccccc4)cc3)n2C)n(CCCOC)c1=O,–
–,–,229,49,CCn1c(=O)c2[nH]c(-c3ccc(OCC(=O)N4CCc5ccccc5C4)cc3)nc2n(CCCOC)c1=O,Ki (Adenosine receptor A1): 100 nM
–,–,87.1,3.02,CCn1c(=O)c2[nH]c(-c3ccc(OCC(=O)Nc4ccccc4)cc3)nc2n(CCCOC)c1=O,Ki (Adenosine receptor A3): 2510 nM; Ki (Adenosine receptor A1): 36.3 nM
–,–,339,324,CCCn1c(=O)c2[nH]c(-c3ccccc3)nc2n(CCCOC)c1=O,–
–,–,525,70.8,CCn1c(=O)c2[nH]c(-c3ccc(-c4ccccc4)cc3)nc2n(CCCOC)c1=O,–
51,21,–,–,CCOCCn1c(=O)c2[nH]c(-c3ccccc3)nc2n(CCCOC)c1=O,–
14,1,–,–,CCn1c(=O)c2c(nc(-c3ccco3)n2C)n(CCCOC)c1=O,–
